# Data from patent US7091220B2, “Substituted indole Mannich bases” (Gruenenthal GmbH, priority 1999, dated 2006).
# Test system: α2-subtype of the human α-adrenergic receptor
# Experiment: SPA test, affinity for the α2-subtype of the human α-adrenergic receptor
# Assay type: binding
# Details: not given
# Description: Wide-ranging testing of the indole Mannich bases according to the invention for their activity was carried out by the conventional high throughput screening methods, such as are described in John P. Devlin, High Throughput Screening, 1997, Marcel Dekker Inc. They are introduced here as a reference and are therefore part of the disclosure.
# The action of the indole Mannich bases according to the invention is determined in particular by the affinity for the N-methyl-D-aspartate (NMDA) receptor family, for (α-adrenergic receptors and opioid receptors.
# The compounds of the general formula 1 according to the invention investigated are suitable as ligands for the α2-subtype of the human α-adrenergic receptor, which is of importance for pain sensation.
# The affinity of the compounds according to the invention for this α2-subtype of the α-adrenergic receptor has been determined with the aid of the SPA test such as is described in John P. Devlin, High Throughput Screening, Marcel Dekker Inc. 1997, pages 307 to 316. This literature is introduced herewith as a reference and is therefore part of the disclosure. The affinities of the compounds according to the invention were in each case determined at a concentration of 10 μM.
row,Compound,"% Inhibition of α2 (humans), 10 μM"
1,"CN(C)C(c1ccccc1Br)c1c[nH]c2cccc([N+](=O)[O-])c12 (stereo not drawn) [Example 57, [(2-Bromo-phenyl)-(4-nitro-1H-indol-3-yl)-methyl]-dimethyl-amine]",64%
2,"CN(C)C(c1ccc(Cl)cc1Cl)c1cn(C)c2ccccc12 (stereo not drawn) [Example 71, [(2,4-Dichloro-phenyl)-(1-methyl-1H-indol-3-yl)-methyl]-dimethyl-amine]",50%
3,"CCc1cccc2c(C(c3cccc(Br)c3)N(C)C)c[nH]c12 (stereo not drawn) [Example 59, [(3-Bromo-phenyl)-(7-ethyl-1H-indol-3-yl)-methyl]-dimethyl-amine]",37%
4,"CN(C)C(c1cccc(Cl)c1)c1cn(C)c2ccccc12 (stereo not drawn) [Example 69, [(3-Chloro-phenyl)-(1-methyl-1H-indol-3-yl)-methyl]-dimethyl-amine]",75%
5,"CN(C)C(c1cc(Br)ccc1F)c1c[nH]c2cccc([N+](=O)[O-])c12 (stereo not drawn) [Example 51, [(5-Bromo-2-fluoro-phenyl)-(4-nitro-1H-indol-3-yl)-methyl]-dimethyl-amine]",43%
6,"Cc1[nH]c2ccc([N+](=O)[O-])cc2c1C(c1ccccc1)N(C)C (stereo not drawn) [Example 15, Dimethyl-[(2-methyl-5-nitro-1H-indol-3-yl)-phenylmethyl]-amine]",40%
7,"CN(C)C(c1ccc(F)cc1Cl)c1c[nH]c2cccc([N+](=O)[O-])c12 (stereo not drawn) [Example 64, [(2-Chloro-4-fluoro-phenyl)-(4-nitro-1H-indol-3-yl)-methyl]-dimethyl-amine]",48%
8,"Cc1cccc2[nH]cc(C(c3ccc(F)cc3Cl)N(C)C)c12 (stereo not drawn) [Example 65, [(2-Chloro-4-fluoro-phenyl)-(4-methyl-1H-indol-3-yl)-methyl]-dimethyl-amine]",42%
9,"CN(C)C(c1ccccc1Br)c1cn(C)c2ccccc12 (stereo not drawn) [Example 58, [(2-Bromo-phenyl)-(1-methyl-1H-indol-3-yl)-methyl]-dimethyl-amine]",82%
10,"CN(C)C(c1cc(Br)ccc1F)c1cn(C)c2ccccc12 (stereo not drawn) [Example 52, [(5-Bromo-2-fluoro-phenyl)-(1-methyl-1H-indol-3-yl)-methyl]-dimethyl-amine]",37%
11,"CN(C)C(c1c(F)cccc1Cl)c1c[nH]c2cccc([N+](=O)[O-])c12 (stereo not drawn) [Example 55, [(2-Chloro-6-fluoro-phenyl)-(4-nitro-1H-indol-3-yl)-methyl]-dimethyl-amine]",49%
12,"CCn1c(-c2ccccc2)c(C(c2c(F)cccc2Cl)N(C)C)c2ccccc21 (stereo not drawn) [Example 54, [(2-Chloro-6-fluoro-phenyl)-(1-ethyl-2-phenyl-1H-indol-3-yl)-methyl]-dimethylamine]",55%
13,"CCn1c(-c2ccccc2)c(C(c2ccc(C(C)(C)C)cc2)N(C)C)c2ccccc21 (stereo not drawn) [Example 62, [(4-tert-Butyl-phenyl)-(1-ethyl-2-phenyl-1H-indol-3-yl)-methyl]-dimethyl-amine]",51%
14,"CN(C)C(c1cccc(Cl)c1Cl)c1cn(C)c2ccccc12 (stereo not drawn) [Example 70, [(2,3-Dichloro-phenyl)-(1-methyl-1H-indol-3-yl)-methyl]-dimethyl-amine]",63%
15,"Cc1[nH]c2ccccc2c1C(c1ccc(C(C)(C)C)cc1)N(C)C (stereo not drawn) [Example 61, [(4-tert-Butyl-phenyl)-(2-methyl-1H-indol-3-yl)-methyl]-dimethyl-amine]",63%
16,"CN(C)C(c1ccc(C(C)(C)C)cc1)c1cn(C)c2ccccc12 (stereo not drawn) [Example 63, [(4-tert-Butyl-phenyl)-(1-methyl-1H-indol-3-yl)-methyl]-dimethyl-amine]",60%
17,"CN(C)C(c1c(F)cccc1Cl)c1c(-c2ccc(Cl)cc2)[nH]c2ccccc12 (stereo not drawn) [Example 67, {(2-Chloro-6-fluoro-phenyl)-[2-(4-chloro-phenyl)-1H-indol-3-yl]-methyl}-dimethyl-amine]",36%

# Same assay, conditions: 10 µM
row,Compound,"% Inhibition of α2 (humans), 10 μM"
1,"CN(C)C(c1c(F)cccc1Cl)c1cn(C)c2ccccc12 (stereo not drawn) [Example 56, [(2-Chloro-6-fluoro-phenyl)-(1-methyl-1H-indol-3-yl)-methyl]-dimethyl-amine]",39%
2,"CN(C)C(c1c(F)cccc1Cl)c1cn(C)c2ccccc12 (stereo not drawn) [Example 68, [(2-Chloro-6-fluoro-phenyl)-(1-methyl-1H-indol-3-yl)-methyl]-dimethyl-amine]",88%
3,"CN(C)C(c1c(F)cccc1Cl)c1c(-c2ccccc2)[nH]c2ccccc12 (stereo not drawn) [Example 53, [(2-Chloro-6-fluoro-phenyl)-(2-phenyl-1H-indol-3-yl)-methyl]-dimethylamine]",38%
4,"CN(C)C(c1c(F)cccc1Cl)c1c(-c2ccccc2)[nH]c2ccccc12 (stereo not drawn) [Example 66, [(2-Chloro-6-fluoro-phenyl)-(2-phenyl-1H-indol-3-yl)-methyl]-dimethyl-amine]",44%

# Test system: phenylquinone-induced writhing in mice
# Experiment: Analgesia test: phenylquinone-induced writhing in mice
# Assay type: in vivo
# Details: male NMRI mice; standard dose 10 mg/kg intravenous, 10 minutes before phenylquinone intraperitoneally; counted 5–20 minutes
# Description: The in-depth investigation of the compounds according to the invention for their analgesic activity was carried out in the phenylquinone-induced writhing in mice (modified by I. C. Hendershot, J. Forsaith, J. Pharmacol. Exp. Ther. 125, 237–240 (1959)). Male NMRI mice weighing 25–30 g were used for this. Groups of 10 animals per substance dose received 0.3 ml/mouse of a 0.02% aqueous solution of phenylquinone (phenylbenzoquinone, Sigma, Deisenhofen; preparation of the solution with the addition of 5% ethanol and storage in a water bath at 45° C.) administered intraperitoneally 10 minutes after intravenous administration of the test substances. The animals were placed individually in observation cages. The number of pain-induced stretching movements (so-called writhing reactions=straightening of the body with stretching of the hind extremities) were counted by means of a push-button counter for 5–20 minutes after the administration of phenylquinone. Animals which received only physiological saline solution were also run as a control.
# The substances were tested in the standard dose of 10 mg/kg. The inhibition of the writhing reactions by a substance was calculated according to the following equation: […]
# The in-depth investigation of the compounds according to the invention for their analgesic activity was carried out in the phenylquinone-induced writhing in mice as described above.
row,Compound,Inhibition of the writhing reaction in %
1,"c1ccc(C(c2c[nH]c3ccccc23)N2CCCCC2)cc1 (stereo not drawn) [Example 49, 3-(Phenylpiperidin-1-yl-methyl)-1H-indole]",82%
2,"CN(C)C(c1ccccc1)c1c[nH]c2ccccc12 (stereo not drawn) [Example 46, [(1H-Indol-3-yl)-phenylmethyl]-dimethylamine]",41%
3,"Cn1cc(C(c2ccccc2)N2CCOCC2)c2ccccc21 (stereo not drawn) [Example 23, 1-Methyl-3-(morpholin-4-yl-phenylmethyl)-1H-indole]",75%
4,"c1ccc(C(c2c[nH]c3ccccc23)N2CCCC2)cc1 (stereo not drawn) [Example 47, 3-(Phenylpyrrolidin-1-yl-methyl)-1H-indole]",57%
5,"CN(C)C(c1ccccc1)c1cn(C)c2ccccc12 (stereo not drawn) [Example 22, Dimethyl-[(1-methyl-1H-indol-3-yl)-phenylmethyl]-amine]",39%
6,"Cn1cc(C(c2ccccc2)N2CCCCC2)c2ccccc21 (stereo not drawn) [Example 48, 1-Methyl-3-(phenylpiperidin-1-yl-methyl)-1H-indole]",6%
